Data on 28 compounds can be found in US6656911B2, “Serine protease inhibitors” (Cortech, Inc., priority 1994, dated 2003).

This experiment concerns the target T1, human neutrophil elastase (HNE) (Homo sapiens, UniProt P08246).
T1 sequence (P08246 30-267): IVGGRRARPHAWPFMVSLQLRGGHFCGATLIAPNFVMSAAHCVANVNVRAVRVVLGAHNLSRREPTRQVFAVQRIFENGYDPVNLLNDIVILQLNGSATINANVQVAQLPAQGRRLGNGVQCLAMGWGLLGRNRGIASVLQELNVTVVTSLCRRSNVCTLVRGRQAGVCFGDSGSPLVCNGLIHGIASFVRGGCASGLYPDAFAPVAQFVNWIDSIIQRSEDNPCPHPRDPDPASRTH
Kind of experiment: HNE Ki of CE compounds, tested as described in WO 96/16080. In kind it is biochemical. The note with it: read-out: HNE Ki.

For `Cc1cccc(Cc2nnc(C(=O)[C@@H](NC(=O)Cn3c(=O)c4ccccc4n(C(=O)c4ccccc4)c3=O)C(C)C)o2)c1` [CE2140, (1-Benzoyl-3,8-quinazolinedione)-N-[1-(2-[5-(3-methylbenzyl)-1,3,4-oxadiazolyl]carbonyl)-2-(S)-methylpropyl]acetamide], the Ki worked out at 204 nM.
With `CC(C)C(NC(=O)CN1C(=O)C(c2ccccc2)N(CCN2CCOCC2)C1=O)C(=O)c1noc(Cc2cccc(C(F)(F)F)c2)n1` [CE2193, 1-(N-Morpholinoethyl)-5-(R,S)-phenyl-2,4-imidazolidindione-N-[1-(3-[5-(3-trifluoromethylbenzyl)-1,2,4-oxadiazolyl]carbonyl)-2-(R,S)-methylpropyl]acetamide], the Ki was 36 nM.
The result for `CC(C)C(NC(=O)CN1C(=O)C(Cc2ccccc2)N(CCN2CCOCC2)C1=O)C(=O)c1noc(Cc2cccc(C(F)(F)F)c2)n1` [CE2180, 1-(N-Morpholinoethyl)-5-(R)-benzyl-2,4-imidazolidinedione-N-[1-(3-[5-(3-trifluoromethylbenzyl)-1,2,4-oxadiazolyl]carbonyl)-2-(R,S)-methylpropyl]acetamide] reads 44 nM.
Turning to `Cc1cccc(Cc2nnc(C(=O)[C@@H](NC(=O)CN3C(=O)CN(C(=O)OCc4ccccc4)C[C@H]3Cc3ccccc3)C(C)C)o2)c1` [CE2190, [1-Benzyloxycarbonyl-5-(R)-benzylpipeazin-3-one]-N-[1-(2-[5-(3-methylbenzyl)-1,3,4-oxadiazolyl]carbonyl)-2-(S)-methylpropyl]acetamide], the Ki stood at 29 nM.
The result for `CC(C)C(NC(=O)CN1C(=O)C(Cc2ccccc2)N(CCN2CCOCC2)C1=O)C(=O)c1noc(Cc2cccc(C(F)(F)F)c2)n1` [CE2181, 1-(N-Morpholinoethyl)-5-(S)-benzyl-2,4-imidazolidinedione-N-[1-(3-[5-(3-trifluoromethylbenzyl)-1,2,4-oxadiazolyl]carbonyl)-2-(R,S)-methylpropyl]acetamide] reads 46 nM.
The result for `Cc1cccc(Cc2nc(C(=O)C(NC(=O)[C@@H]3Cc4cccc5c4N3C(=O)[C@@H](N)CC5)C(C)C)no2)c1` (stereo partly drawn) [CE2220, (2S,5S)-5-Amino-1,2,4,5,6,7-hexahydroazepino-[3.2.1]-indole-4-one-carbonyl-N-[1-(3-[5-(3-methylbenzyl)-1,2,4-oxadiazolyl]carbonyl)-2-(R,S)-methylpropyl]amide] reads 52 nM.
The result for `CC(C)[C@H](NC(=O)CN1C(=O)CN(Cc2ccc3c(c2)OCCO3)C(=O)[C@@H]1Cc1ccccc1)C(=O)c1noc(Cc2cccc(C(F)(F)F)c2)n1` [CE2187] reads 42 nM.
Take `Cc1cccc(Cc2nnc(C(=O)[C@@H](NC(=O)[C@@H]3CCCN3C(=O)[C@@H](NC(=O)N3CCOCC3)C(C)C)C(C)C)o2)c1` [CE2104, (Morpholino-N-carbonyl)-L-valyl-N-[1-(2-[5-(3-methylbenzyl)-1,3,4-oxadiazolyl]carbonyl)-2-(S)-methylpropyl]-L-prolinamide]: the Ki is 0.33 nM.
As for `CC(C)[C@H](NC(=O)CN1C(=O)CN(Cc2ccccc2)C(=O)[C@@H]1Cc1ccccc1)C(=O)c1noc(Cc2cccc(C(F)(F)F)c2)n1` [CE2129, 4-[1-Benzyl-3-(S)-benzylpiperazine-2,5,-dione]-N-[1-(3-[5-(3-trifluoromethylbenzyl)-1,2,4-oxadiazolyl]carbonyl)-2-(S)-methylpropyl]acetamide], the Ki worked out at 300 nM.
Take `CC(C)[C@H](NC(=O)[C@@H]1CCCN1C(=O)[C@@H](NC(=O)c1cccnc1)C(C)C)C(=O)c1noc(Cc2cccc(C(F)(F)F)c2)n1` [CE2171, (3-Pyridylcarbonyl)-L-valyl-N-[1-(3-[5-(3-trifluoromethylbenzyl)-1,2,4-oxadiazolyl]carbonyl)-2-(S)-methylpropyl]-L-prolinamide]: the Ki worked out at 0.64 nM.
The result for `COC(=O)c1ccc(C=C2C(=O)N(C(C)=O)CC(=O)N2CC(=O)N[C@H](C(=O)c2nnc(Cc3cccc(C)c3)o2)C(C)C)cc1` [CE2112, 1-Acetyl-3-(4-carbomethoxybenzylidene) piperazine-2,5-dione-N-[1-(2-[5-(3-methylbenzyl)-1,3,4-oxadiazolyl]carbonyl)-2-(S)-methylpropyl]acetamide] reads 1.2 nM.
With `Cc1cccc(Cc2nnc(C(=O)C(NC(=O)CN3C(=O)C[S+]([O-])C3Cc3ccccc3)C(C)C)o2)c1` [CE2136, 2-[(2-(R,S)-Benzyl-4-oxothiazolidin-3-yloxide]-N-[1-(2-[5-(3-methylbenzyl)-1,3,4-oxadiazolyl]carbonyl)-2-(R,S)-methylpropyl]acetamide], the Ki came out at 104 nM.
Turning to `CC(C)[C@H](NC(=O)[C@@H]1CCCN1C(=O)[C@@H](NC(=O)OCc1ccccc1)C(C)C)C(=O)c1noc(C(C)(C)c2cccc(C(F)(F)F)c2)n1` [CE2073, (Benzyloxycarbonyl)-L-valyl-N-[1-(3-[5-(α,α-dimethyl-3-trifluoromethylbenzyl)-1,2,4-oxadiazolyl]carbonyl)-2-(S)-methylpropyl]-L-prolinamide], the Ki is 0.235 nM.
With `CC(C)C(NC(=O)CN1C(=O)C(c2ccccc2)N(C)C1=O)C(=O)c1noc(Cc2cccc(C(F)(F)F)c2)n1` [CE2182, 5-(R,S)-Phenyl-1-methyl-2,4-imidazolidinedione-N-[1-(3-[5-(3-trifluoromethylbenzyl)-1,2,4-oxadiazolyl]carbonyl)-2-(S)-methylpropyl]acetamide], the Ki came out at 54 nM.
The result for `CC(=O)N1c2ccccc2C[C@H]1C(=O)N[C@H](C(=O)c1noc(Cc2cccc(C(F)(F)F)c2)n1)C(C)C` [CE2143, Acetyl-2-L-(2,3-dihydro-1H-indole)-N-[1-(3-[5(3-trifluoromethylbenzyl)-1,2,4-oxadiazolyl]carbonyl)-2-(S)-methylpropyl]amide] reads 11.5 nM.
The result for “(Benzyloxycarbonyl)-L-valyl-N-[1-(2-[5-(1-napthylenyl)-1,3,4-xadiazolyl]carbonyl)-2-(S)-methylpropyl]-L-prolinamide [CE2124]” reads 0.033 nM.
For `CC(C)[C@H](NC(=O)[C@@H]1CCCN1C(=O)[C@@H](NC(=O)OCc1ccccc1)C(C)C)C(=O)c1nnc(Cc2cccc(C(F)(F)F)c2)o1` [CE2075, (Benzyloxycarbonyl)-L-valyl-N-[1-(2-[5-(3-trifluoromethylbenzyl)-1,3,4-oxadiazolyl]carbonyl)-2-(S)-methylpropyl]-L-prolinamide], the Ki was determined as 0.039 nM.
The result for `CC(C)[C@H](NC(=O)CN(Cc1ccccc1)C(=O)c1ccc[nH]1)C(=O)c1noc(Cc2cccc(C(F)(F)F)c2)n1` [CE2097, (Pyrrole-2-carbonyl)-N-(benzyl)glycyl-N-[1-(3-[5-(3-trifluoromethylbenzyl)1-1,2,4-oxadiazolyl]carbonyl)-(S)-methylpropyl]amide] reads 115 nM; that for `CC(C)[C@H](NC(=O)[C@@H]1CCCN1C(=O)[C@@H](NC(=O)OCc1ccccc1)C(C)C)C(=O)c1noc(Cc2cc(-c3ccccc3)cc(-c3ccccc3)c2)n1` [CE2096, (Benzyloxycarbonyl)-L-valyl-N-[1-(3-[5-(3,5-diphenylbenzyl)-1,2,4-oxadiazolyl]carbonyl)-2-(S)-methylpropyl]-L-prolinamide], 0.79 nM.
`Cc1cccc(Cc2nnc(C(=O)[C@@H](NC(=O)OCc3ccccc3)C(C)C)o2)c1` [CE2170]: the Ki was determined as 297 nM.
In the case of “3-(S)-[(4-Morpholino carbonyl-butanoyl)amino]-ε-lactam-N-[1-(2-[5-(3-methylbenzyl)-1,3,4-oxadiazolyl]carbonyl)-2-(R,S)-methylpropyl]acetamide [CE2091]”, the Ki came out at 270 nM.
The result for `Cc1cccc(Cc2nnc(C(=O)[C@@H](NC(=O)CN(C(=O)c3ccc[nH]3)C3CCc4ccccc43)C(C)C)o2)c1` (stereo partly drawn) [CE2195, (Pyrrole-2-carbonyl)-N-[1-(R,S)-indanyl]glycyl-N-[1-(2-[5-(3-methylbenzyl)-1,3,4-oxadiazolyl]carbonyl)-2-(S)-methylpropyl]amide] reads 10.6 nM; that for `Cc1cccc(Cc2nnc(C(=O)C(NC(=O)CN3C(=O)CSC3c3ccccc3)C(C)C)o2)c1` [CE2121, 2-[2-(R,S)-Phenyl-4-oxothiazolidin-3-yl]-N-[1-(2-[5-(3-methylbenzyl)-1,3,4-oxadiazolyl]carbonyl)-2-(S)-methylpropyl]acetamide], 28 nM; that for `Cc1cccc(Cc2nnc(C(=O)[C@@H](NC(=O)Cn3c(=O)c(NC(=O)OCc4ccccc4)cc4ccc(N5CCCCC5)cc43)C(C)C)o2)c1` [CE2107, 3-[(Benzyloxycarbonyl)amino]-7-piperidinyl-quinoline-2-one-N-[1-(2-[5-(3-methylbenzyl)-1,3,4-oxadiazolyl]carbonyl)-2-(S)-methylpropyl]acetamide], 17 nM.
The result for `Cc1cccc(Cc2nnc(C(=O)[C@@H](NC(=O)CN(Cc3ccccc3)C(=O)Cc3ccccc3)C(C)C)o2)c1` [CE2210, (N-Benzylcarbonyl)-N-(benzyl)glycyl-N-[1-(2-[5-(3-methylbenzyl)-1,3,4,-oxadiazolyl]carbonyl)-2-(S)-methylpropyl]amide] reads 22.7 nM; that for `Cc1cccc(Cc2nnc(C(=O)[C@@H](NC(=O)CN3C(=O)CN(Cc4ccccc4)C(=O)[C@@H]3Cc3ccccc3)C(C)C)o2)c1` [CE2128, 4-[1-Benzyl-3-(S)-benzylpiperazine-2,5,-dione]-N-[1-(2-(5-(3-methylbenzyl)-1,3,4-oxadiazolyl]carbonyl)-2-(S)-methylpropyl]acetamide], 64 nM; that for “3-(S)-Amino-ε-lactam-N-[1-(2-[5-(3-methylbenzyl)-1,3,4-oxadiazolyl]carbonyl)-2-(S)-methylpropyl]acetamide trifluoroacetic acid salt [CE2080]”, 62 nM.
The result for `Cc1cccc(Cc2nnc(C(=O)C(NC(=O)CN3C(=O)CCCC3c3ccc(F)cc3)C(C)C)o2)c1` [CE2087, 6-[4-Fluorophenyl]-ε-lactam-N-[1-(2-[5-(3-methylbenzyl)-1,3,4-oxadiazolyl]carbonyl)-2-(S)-methylpropyl]acetamide] reads 20 nM.

A word on the Ki: it is a dissociation constant, usually derived from enzyme kinetics or from competition with a known ligand.
